Laboratory results reported in ChEMBL document CHEMBL1201862, “PubChem BioAssay data set” (2004).
Activity calls are given as the source filed them.

Assays:
[1] = target: T1, Beta-2 adrenergic receptor (Homo sapiens, UniProt P07550); experiment: ADRB2 activation measured by internalization – cell-based, FAP fluorogen, flow cytometry, cherry pick 1, dose response (AID 588763); type: functional
[2] = target: T1, Beta-2 adrenergic receptor; experiment: Dose response for HTS for Beta-2AR agonists via FAP method from Powderset3.; type: functional
Beta-lactamase [3] = target: Beta-lactamase (Pseudomonas aeruginosa, UniProt Q79MP6);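 also: biochemical dose-response test of metallo-beta-lactamase enzyme inhibition, read out by epi-absorbance; purified recombinant IMP-1 metallo-beta-lactamase with nitrocefin as substrate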
Chain of Beta-lactamase (Pseudomonas aeruginosa, UniProt Q79MP6) (Q79MP6 whole entry): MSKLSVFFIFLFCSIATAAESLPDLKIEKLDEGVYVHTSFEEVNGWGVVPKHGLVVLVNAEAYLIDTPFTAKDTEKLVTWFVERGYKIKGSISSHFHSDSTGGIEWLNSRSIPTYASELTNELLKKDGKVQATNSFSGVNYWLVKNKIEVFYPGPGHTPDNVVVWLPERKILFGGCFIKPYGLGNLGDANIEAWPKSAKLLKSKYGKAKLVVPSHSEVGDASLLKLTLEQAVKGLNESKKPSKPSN

Beta-lactamase [4] = target: Beta-lactamase (Salmonella choleraesuis (strain SC-B67), UniProt Q5J463)
Chain of Beta-lactamase (Salmonella choleraesuis (strain SC-B67), UniProt Q5J463) (Q5J463 whole entry): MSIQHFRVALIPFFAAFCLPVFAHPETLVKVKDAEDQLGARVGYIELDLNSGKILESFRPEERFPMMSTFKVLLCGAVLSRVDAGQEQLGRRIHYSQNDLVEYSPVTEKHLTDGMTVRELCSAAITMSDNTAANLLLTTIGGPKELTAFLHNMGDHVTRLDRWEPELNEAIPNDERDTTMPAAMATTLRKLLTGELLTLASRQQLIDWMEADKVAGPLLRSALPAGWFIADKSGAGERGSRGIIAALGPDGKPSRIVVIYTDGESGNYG

HEK293 [5] = experiment: inhibition of NOD1-driven NF-kB reporter – cell-based, luminescence, uHTS, primary screen (AID 1578); type: functional; conditions: Homo sapiens
HEK293 [6] = experiment: cells; type: functional, cell-based; conditions: Homo sapiens
HEK293 [7] = experiment: cells; type: functional, cell-based; conditions: Homo sapiens; remark: listed apart in the source
[8] = target: Nucleotide-binding oligomerization domain-containing protein 2 (Homo sapiens, UniProt Q9HC29); experiment: inhibition of NOD2-driven NF-kB reporter – cell-based, luminescence, uHTS, HEK293 (AID 1566); type: functional
HEK293 [9] = experiment: NOD2 signaling inhibitors in MDP-stimulated cells, cell-based, uHTS, luminescence (AID 2001); type: functional; conditions: Homo sapiens
HEK293 [10] = experiment: cells; type: functional, cell-based; conditions: Homo sapiens; remark: listed apart in the source
Tumor necrosis factor = Tumor necrosis factor (Homo sapiens, UniProt P01375); experiment: analog potency on TNFa NF-kB signaling – cell-based, revised, SAR follow-up (AID 2337); type: functional
Chain of Tumor necrosis factor (P01375 whole entry, the tested form may be a part): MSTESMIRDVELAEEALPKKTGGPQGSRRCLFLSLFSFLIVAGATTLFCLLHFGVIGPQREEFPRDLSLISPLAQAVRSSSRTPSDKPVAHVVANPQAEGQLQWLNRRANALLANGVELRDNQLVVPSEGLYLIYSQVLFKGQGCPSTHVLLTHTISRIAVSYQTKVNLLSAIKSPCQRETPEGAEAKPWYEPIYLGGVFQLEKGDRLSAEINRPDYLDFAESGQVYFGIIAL

[11] = target: T2, Nucleotide-binding oligomerization domain-containing protein 1 (Homo sapiens, UniProt Q9Y239); experiment: blockers of NOD1 pathway activity – revised, SAR follow-up (AID 2333); type: functional
T2 sequence (Q9Y239 whole entry): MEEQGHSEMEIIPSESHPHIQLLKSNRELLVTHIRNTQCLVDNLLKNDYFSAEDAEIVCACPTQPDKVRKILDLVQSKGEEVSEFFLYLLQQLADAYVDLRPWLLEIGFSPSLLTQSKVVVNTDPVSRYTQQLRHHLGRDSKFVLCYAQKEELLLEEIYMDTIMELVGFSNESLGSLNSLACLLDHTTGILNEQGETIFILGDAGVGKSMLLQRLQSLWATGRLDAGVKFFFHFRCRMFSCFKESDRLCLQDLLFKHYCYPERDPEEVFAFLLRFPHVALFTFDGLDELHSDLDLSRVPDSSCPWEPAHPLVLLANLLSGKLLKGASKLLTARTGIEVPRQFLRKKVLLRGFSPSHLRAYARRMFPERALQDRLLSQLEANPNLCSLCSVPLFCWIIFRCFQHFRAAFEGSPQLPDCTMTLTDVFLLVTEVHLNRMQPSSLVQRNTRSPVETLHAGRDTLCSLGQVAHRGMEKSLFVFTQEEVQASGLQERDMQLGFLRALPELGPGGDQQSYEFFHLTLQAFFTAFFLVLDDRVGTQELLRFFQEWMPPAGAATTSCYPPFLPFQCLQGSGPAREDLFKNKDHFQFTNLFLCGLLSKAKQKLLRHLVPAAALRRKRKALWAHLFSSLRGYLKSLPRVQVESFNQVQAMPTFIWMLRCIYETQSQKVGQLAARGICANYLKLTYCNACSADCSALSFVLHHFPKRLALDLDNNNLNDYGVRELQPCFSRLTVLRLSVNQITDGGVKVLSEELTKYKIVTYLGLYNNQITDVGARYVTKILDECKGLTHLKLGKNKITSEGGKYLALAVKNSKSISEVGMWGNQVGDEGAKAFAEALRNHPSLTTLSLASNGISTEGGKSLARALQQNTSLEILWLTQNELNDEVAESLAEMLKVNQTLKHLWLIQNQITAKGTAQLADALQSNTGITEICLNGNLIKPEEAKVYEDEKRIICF

HEK293 [12] = experiment: EBV LMP1 TES2 canonical NF-kB signalling blockers – cell-based, HEK293, luciferase, cherry-pick, dose response (AID 588343); type: functional; conditions: Homo sapiens
INS1 = experiment: INS-1E survival protection against cytokine death – cell-based, luminescence, retest, dose response (AID 449756); type: functional; conditions: Rattus norvegicus;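 also: cell death triggered by IL-1 beta plus TNF-alpha plus IFN-gamma mixture; protective hits raise ATP signal compared with cytokine alone wells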
[13] = reduction of Shn3 3'UTR-driven luciferase in osteoblasts – cell-based, Clone20 osteoblasts, firefly luciferase, cherry-picked, dose response (AID 624132); type: functional;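 also: firefly luciferase luminescence from reporter carrying the Shn3 3'UTR in osteoblasts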
[14] = target: 26S proteasome non-ATPase regulatory subunit 14 (Homo sapiens, UniProt O00487); experiment: inhibition of proteasome subunit RPN11 – biochemical, fluorescence polarization, uHTS hits, confirmation (AID 602368); type: functional
Chain of 26S proteasome non-ATPase regulatory subunit 14 (O00487 whole entry): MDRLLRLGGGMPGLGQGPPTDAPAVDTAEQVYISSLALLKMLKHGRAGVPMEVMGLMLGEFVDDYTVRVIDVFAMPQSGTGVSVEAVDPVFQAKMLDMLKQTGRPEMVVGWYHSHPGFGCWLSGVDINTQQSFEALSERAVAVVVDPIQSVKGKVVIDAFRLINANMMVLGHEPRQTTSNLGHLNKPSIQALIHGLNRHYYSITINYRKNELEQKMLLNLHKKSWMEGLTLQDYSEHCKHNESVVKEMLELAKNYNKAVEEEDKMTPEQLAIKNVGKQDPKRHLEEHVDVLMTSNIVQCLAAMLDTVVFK

[15] = loss of viability in HepG2 cells – cell-based, CellTiter-Glo, cherry-picked, cytotoxicity control for Shn3 inhibitor project, dose response (AID 624134); type: functional
[16] = non-specific 3'UTR reporter inhibition in Clone20-Shn3RL – cell-based, Renilla luciferase, cherry-picked, counter-screen for Shn3 inhibitor project, dose response (AID 624133); type: functional
[17] = target: 72 kDa type IV collagenase (Homo sapiens, UniProt P08253); experiment: Dose Response validation of uHTS RPN11 inhibitor hits using a MMP-2 Fluorescence assay.; type: functional
Chain of 72 kDa type IV collagenase (P08253 whole entry): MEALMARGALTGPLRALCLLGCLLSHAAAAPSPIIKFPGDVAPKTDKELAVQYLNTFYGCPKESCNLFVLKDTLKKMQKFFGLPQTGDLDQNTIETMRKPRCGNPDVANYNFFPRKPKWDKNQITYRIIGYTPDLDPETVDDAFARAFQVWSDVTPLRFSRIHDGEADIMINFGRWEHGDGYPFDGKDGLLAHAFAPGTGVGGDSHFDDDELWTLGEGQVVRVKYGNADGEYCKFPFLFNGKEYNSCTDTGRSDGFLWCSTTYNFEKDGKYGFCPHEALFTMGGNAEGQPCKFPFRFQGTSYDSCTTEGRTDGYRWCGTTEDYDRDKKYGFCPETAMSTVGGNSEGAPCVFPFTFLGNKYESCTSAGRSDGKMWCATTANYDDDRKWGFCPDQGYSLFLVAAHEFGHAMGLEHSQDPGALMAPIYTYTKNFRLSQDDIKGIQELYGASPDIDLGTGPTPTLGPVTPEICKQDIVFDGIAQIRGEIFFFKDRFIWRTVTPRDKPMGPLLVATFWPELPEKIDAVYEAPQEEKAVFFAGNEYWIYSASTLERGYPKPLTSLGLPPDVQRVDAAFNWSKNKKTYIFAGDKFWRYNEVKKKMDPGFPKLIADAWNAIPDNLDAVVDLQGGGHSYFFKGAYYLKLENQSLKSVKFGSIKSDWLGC

Prothrombin = Prothrombin (Bos taurus, UniProt P00735); experiment: thrombin protease inhibitors – biochemical, fluorescence polarization, uHTS hits, dose response (AID 602369); type: functional
HEK293 [18] = experiment: cells; conditions: Homo sapiens
[19] = target: T3, Sentrin-specific protease 8 (Homo sapiens, UniProt Q96LD8); type: functional
T3 sequence (Q96LD8 whole entry): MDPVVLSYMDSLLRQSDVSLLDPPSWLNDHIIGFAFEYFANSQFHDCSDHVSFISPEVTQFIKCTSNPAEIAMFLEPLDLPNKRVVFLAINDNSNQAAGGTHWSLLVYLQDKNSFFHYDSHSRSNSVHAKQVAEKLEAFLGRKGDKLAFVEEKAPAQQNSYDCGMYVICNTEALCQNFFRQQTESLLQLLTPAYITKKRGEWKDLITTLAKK

[20] = target: T3, Sentrin-specific protease 8; type: functional; remark: listed apart in the source
[21] = viability loss in HEK293T cells – cell-based, cherry-picks, cytotoxicity control for HIV Vif inhibitor project, dose response (AID 652208); type: functional
[22] = target: T4, Apoptotic protease-activating factor 1 (Homo sapiens, UniProt O14727); experiment: SAR analysis of small molecule Activators of Apaf-1 in a Fluorescent assay.; type: functional; conditions: read-out: EC50_Mean;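 also: caspase-3 cleavage of fluorogenic Rh110 DEVD substrate downstream of apoptosome activation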
T4 sequence (O14727 whole entry): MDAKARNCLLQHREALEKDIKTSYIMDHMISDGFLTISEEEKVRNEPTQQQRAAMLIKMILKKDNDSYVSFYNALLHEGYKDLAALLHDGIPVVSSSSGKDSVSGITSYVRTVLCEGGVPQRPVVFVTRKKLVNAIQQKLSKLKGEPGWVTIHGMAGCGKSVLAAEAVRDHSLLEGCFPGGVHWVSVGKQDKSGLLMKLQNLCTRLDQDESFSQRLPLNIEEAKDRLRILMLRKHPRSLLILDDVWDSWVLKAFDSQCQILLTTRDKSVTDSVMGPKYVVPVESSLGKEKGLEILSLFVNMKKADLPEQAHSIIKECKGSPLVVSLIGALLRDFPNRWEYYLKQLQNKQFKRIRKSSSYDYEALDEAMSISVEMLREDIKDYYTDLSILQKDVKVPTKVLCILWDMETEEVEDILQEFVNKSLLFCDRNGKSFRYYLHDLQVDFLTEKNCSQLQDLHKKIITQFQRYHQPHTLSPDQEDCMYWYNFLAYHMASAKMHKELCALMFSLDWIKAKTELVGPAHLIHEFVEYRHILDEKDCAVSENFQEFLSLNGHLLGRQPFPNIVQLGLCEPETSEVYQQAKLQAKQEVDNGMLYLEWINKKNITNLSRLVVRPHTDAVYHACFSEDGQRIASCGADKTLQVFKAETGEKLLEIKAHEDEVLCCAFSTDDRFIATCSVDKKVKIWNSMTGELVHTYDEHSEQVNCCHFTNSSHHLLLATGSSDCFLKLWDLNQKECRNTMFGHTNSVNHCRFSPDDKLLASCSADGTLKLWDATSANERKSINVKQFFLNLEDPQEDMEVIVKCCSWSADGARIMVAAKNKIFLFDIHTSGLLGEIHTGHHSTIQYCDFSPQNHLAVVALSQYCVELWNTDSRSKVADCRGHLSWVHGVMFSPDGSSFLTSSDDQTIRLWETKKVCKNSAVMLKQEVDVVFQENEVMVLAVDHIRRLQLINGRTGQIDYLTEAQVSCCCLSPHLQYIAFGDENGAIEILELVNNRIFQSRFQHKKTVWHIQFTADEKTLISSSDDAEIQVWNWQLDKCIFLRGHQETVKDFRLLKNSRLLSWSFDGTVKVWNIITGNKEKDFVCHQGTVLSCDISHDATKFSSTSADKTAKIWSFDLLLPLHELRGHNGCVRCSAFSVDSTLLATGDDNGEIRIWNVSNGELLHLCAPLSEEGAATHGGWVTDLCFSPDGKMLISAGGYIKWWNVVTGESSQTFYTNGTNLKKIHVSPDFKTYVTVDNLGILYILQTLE

[23] = target: ALK tyrosine kinase receptor (Homo sapiens, UniProt Q9UM73); type: functional;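 also: ALK tested as one member of a kinase panel screen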
Chain of ALK tyrosine kinase receptor (Q9UM73 whole entry): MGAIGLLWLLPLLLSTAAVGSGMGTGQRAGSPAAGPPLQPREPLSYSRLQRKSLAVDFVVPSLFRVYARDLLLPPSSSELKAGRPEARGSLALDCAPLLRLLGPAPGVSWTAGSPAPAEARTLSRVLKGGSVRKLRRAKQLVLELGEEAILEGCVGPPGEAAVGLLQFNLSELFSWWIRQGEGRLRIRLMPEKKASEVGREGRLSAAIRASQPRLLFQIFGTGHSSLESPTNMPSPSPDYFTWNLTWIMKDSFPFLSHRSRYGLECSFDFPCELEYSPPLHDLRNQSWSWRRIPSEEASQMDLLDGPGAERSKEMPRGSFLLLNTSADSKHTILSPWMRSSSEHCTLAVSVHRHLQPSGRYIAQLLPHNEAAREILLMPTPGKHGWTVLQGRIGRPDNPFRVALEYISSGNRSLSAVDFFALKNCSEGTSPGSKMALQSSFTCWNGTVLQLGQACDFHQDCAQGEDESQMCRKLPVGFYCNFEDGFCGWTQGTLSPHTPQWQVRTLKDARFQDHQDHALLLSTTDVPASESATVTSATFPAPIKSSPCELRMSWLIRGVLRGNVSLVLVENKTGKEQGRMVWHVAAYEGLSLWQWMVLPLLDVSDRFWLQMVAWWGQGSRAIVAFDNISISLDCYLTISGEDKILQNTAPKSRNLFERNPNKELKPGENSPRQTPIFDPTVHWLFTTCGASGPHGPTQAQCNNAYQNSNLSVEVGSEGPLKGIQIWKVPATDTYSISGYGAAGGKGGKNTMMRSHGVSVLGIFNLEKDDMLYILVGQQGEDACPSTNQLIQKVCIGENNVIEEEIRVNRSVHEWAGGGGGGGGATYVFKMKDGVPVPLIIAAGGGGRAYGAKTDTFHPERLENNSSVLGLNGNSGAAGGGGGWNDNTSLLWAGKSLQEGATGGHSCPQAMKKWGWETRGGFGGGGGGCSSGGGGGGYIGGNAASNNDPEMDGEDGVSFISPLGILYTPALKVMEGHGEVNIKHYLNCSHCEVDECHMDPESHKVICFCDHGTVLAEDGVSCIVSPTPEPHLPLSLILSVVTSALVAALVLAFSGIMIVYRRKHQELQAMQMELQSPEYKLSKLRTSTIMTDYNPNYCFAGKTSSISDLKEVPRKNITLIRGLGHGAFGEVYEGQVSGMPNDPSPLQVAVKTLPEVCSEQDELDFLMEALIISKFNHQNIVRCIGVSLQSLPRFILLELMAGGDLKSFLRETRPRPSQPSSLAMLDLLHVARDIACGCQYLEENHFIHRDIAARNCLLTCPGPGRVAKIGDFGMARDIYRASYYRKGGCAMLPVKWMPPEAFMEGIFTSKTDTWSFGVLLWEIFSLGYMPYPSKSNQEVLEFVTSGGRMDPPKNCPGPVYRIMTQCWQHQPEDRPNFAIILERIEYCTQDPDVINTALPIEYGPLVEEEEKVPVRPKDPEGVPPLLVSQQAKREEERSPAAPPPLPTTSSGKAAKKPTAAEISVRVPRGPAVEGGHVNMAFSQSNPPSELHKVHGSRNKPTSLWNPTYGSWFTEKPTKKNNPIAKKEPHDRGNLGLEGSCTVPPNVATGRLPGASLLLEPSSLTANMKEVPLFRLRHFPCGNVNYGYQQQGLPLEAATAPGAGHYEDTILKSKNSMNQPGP

[24] = target: Cyclin-dependent kinase 19 (Homo sapiens, UniProt Q9BWU1); experiment: Navigating the Kinome. Panel member name: CDC2L6; type: functional
[25] = target: Adenosylmethionine-8-amino-7-oxononanoate aminotransferase (Mycobacterium tuberculosis, UniProt P9WQ81); experiment: Mycobacterium tuberculosis BioA enzyme inhibitor Measured in Biochemical System Using Plate Reader - 2163-02_Inhibitor_Dose_CherryPick_Activity.; type: functional, Mycobacterium tuberculosis UT205
Chain of Adenosylmethionine-8-amino-7-oxononanoate aminotransferase (P9WQ81 whole entry): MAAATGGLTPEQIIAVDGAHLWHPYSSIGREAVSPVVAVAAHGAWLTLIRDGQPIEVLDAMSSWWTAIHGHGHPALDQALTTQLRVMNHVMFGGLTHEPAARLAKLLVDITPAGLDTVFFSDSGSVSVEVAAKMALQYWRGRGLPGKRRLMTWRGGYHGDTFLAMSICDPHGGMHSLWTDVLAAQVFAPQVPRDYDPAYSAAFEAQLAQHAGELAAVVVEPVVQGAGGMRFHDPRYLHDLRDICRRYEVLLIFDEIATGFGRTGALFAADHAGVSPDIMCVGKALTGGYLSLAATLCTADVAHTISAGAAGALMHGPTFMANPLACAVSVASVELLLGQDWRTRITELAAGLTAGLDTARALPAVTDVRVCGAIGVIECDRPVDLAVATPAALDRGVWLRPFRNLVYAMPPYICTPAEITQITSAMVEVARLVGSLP

[26] = inhibitors of EBV LMP1 NF-kappaB signaling – cell-based, luciferase reporter, luminescence, dry powder, set 2, dose response (AID 624376); type: functional
[27] = target: Tyrosine-protein phosphatase non-receptor type 11 (Homo sapiens, UniProt Q06124); experiment: PTPN11 enzyme inhibitors – biochemical, selectivity assay for STEP inhibitor project, dose response (AID 602367); type: functional; conditions: read-out: IC50_Mean
[28] = target: Tyrosine-protein phosphatase non-receptor type 5 (Homo sapiens, UniProt P54829); experiment: PTPN5 enzyme inhibition – biochemical, fluorescence intensity, uHTS hits, confirmation (AID 602372); type: functional; conditions: read-out: IC50_Mean
Chain of Tyrosine-protein phosphatase non-receptor type 5 (P54829 whole entry): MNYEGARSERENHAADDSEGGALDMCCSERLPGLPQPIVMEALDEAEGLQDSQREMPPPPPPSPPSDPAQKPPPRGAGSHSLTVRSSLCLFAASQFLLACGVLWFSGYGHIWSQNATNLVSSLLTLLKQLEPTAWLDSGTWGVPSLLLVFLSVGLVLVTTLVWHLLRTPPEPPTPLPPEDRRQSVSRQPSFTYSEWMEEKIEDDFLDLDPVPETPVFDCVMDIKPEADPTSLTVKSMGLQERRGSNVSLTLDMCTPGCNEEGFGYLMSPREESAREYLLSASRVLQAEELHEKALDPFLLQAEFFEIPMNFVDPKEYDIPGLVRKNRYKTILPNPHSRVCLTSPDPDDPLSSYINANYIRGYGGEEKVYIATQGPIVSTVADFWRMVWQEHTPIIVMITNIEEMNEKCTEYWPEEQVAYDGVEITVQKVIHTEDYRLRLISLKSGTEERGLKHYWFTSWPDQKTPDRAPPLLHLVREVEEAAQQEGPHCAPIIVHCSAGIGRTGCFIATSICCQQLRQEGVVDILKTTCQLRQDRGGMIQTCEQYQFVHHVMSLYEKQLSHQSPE

[29] = target: Dual specificity protein phosphatase 3 (Homo sapiens, UniProt P51452); experiment: VHR phosphatase inhibition, dose response, selectivity assay for STEP inhibitor project, biochemical (AID 602374); type: functional; conditions: read-out: IC50_Mean
Chain of Dual specificity protein phosphatase 3 (P51452 whole entry): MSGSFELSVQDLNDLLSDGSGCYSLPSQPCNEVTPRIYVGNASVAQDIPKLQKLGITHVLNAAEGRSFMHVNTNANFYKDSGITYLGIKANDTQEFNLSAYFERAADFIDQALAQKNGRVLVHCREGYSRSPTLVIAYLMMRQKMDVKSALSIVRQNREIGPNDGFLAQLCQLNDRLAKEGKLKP

cells [30] = type: functional, cell-based
[31] = target: T5, Trace amine-associated receptor 1 (Homo sapiens, UniProt Q96RJ0); experiment: Fluorescence-based cell-based high throughput dose response assay to identify agonists of the human trace amine associated receptor 1 (TAAR1).; type: functional
T5 sequence (Q96RJ0 whole entry): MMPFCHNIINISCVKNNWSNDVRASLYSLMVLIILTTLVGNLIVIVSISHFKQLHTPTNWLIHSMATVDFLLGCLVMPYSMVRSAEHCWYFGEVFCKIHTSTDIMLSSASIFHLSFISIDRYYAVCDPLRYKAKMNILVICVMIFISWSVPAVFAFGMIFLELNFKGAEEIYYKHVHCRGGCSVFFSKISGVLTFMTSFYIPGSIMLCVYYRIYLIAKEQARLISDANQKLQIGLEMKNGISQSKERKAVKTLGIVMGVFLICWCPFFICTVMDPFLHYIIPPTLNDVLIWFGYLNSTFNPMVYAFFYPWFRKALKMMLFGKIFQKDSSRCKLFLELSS

[32] = target: T5, Trace amine-associated receptor 1; experiment: Counterscreen for agonists of the human trace amine associated receptor 1 (hTAAR1): Fluorescence-based cell-based high throughput dose response assay to identify hTAAR1 agonist that also desensitize TAAR1 receptor response.; type: functional
cells [33] = type: functional, cell-based; remark: listed apart in the source

T1 sequence (P07550 whole entry): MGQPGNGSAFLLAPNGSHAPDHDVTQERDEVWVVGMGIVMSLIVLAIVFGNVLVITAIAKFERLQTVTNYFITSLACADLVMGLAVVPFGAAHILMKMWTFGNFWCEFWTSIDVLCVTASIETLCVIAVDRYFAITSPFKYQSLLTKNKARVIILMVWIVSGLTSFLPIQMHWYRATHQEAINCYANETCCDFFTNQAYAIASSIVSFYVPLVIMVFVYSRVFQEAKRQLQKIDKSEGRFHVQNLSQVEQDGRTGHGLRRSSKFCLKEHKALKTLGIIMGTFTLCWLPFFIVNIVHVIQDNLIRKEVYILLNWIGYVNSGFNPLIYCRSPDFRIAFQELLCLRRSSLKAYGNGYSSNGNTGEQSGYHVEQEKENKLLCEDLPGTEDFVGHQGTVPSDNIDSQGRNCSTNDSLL

CC(=O)Nc1ccc(S(=O)(=O)N2CCC(Oc3ccc(-n4cnnn4)cc3)CC2)cc1
EC50 [1]: 0.126 µM (active) | EC50 [2]: 0.0366 µM (active)

CC(=O)Nc1ccc(N2C(=O)c3cccc4c(O)ccc(c34)C2=O)cc1
IC50 (Beta-lactamase [3]): 13.7 µM (inactive) | IC50 (Beta-lactamase [4]): 7 µM (active)

Cc1ccc(NC(=O)C2CCN(S(=O)(=O)c3ccc4c(c3)NC(=O)C(C)S4)CC2)cc1Cl (stereo unspecified)
EC50 (HEK293 [5]): 5.35 µM (active) | IC50 (HEK293 [6]): 2.72 µM (active) | IC50 (HEK293 [7]): 4.25 µM (active) | EC50 [8]: 8.36 µM (active) | IC50 (HEK293 [9]): 2.94 µM (inactive) | IC50 (HEK293 [10]): > 20 µM (inactive) | IC50 (Tumor necrosis factor): 2.84 µM (active) | IC50 [11]: 2.87 µM (active) | AC50 (HEK293 [12]): 15.3 µM (active) | AC50 (INS1): 3.7 µM (active) | AC50 [13]: 2.83 µM (active) | IC50 [14]: 49.4 µM (active) | AC50 [15]: 6.82 µM (active) | AC50 [16]: 2.48 µM (active) | IC50 [17]: > 100 µM (inactive) | IC50 (Prothrombin): 46 µM (active) | IC50 (HEK293 [18]): 5.08 µM (active)

O=C(COC(=O)c1ccc([N+](=O)[O-])o1)NCc1ccc2c(c1)OCO2
IC50 [19]: 5.11 µM (active) | IC50 [20]: 11.1 µM (active)

COc1ccc(S(=O)(=O)Nc2cccc3ccc(O)cc23)cc1
AC50 [21]: > 52 µM (inactive)

COC(=O)[C@@H]1COC(c2ccc(F)cc2F)=N1
EC50 [22]: > 100 µM (inactive)

Cc1nn(-c2nc3ccccc3[nH]2)c(O)c1C1OC(=O)c2ccccc21 (stereo unspecified)
Ki [23]: 0.2 µM (active) | Ki [24]: 2 µM (active)

N#C[C@H]1[C@@H](c2ccccc2)[C@@H](CO)N1C(=O)Nc1cccc(F)c1
AC50 [25]: 1.76 µM (active)

COc1ccc(S(=O)(=O)N(C)C[C@H]2Oc3ncc(/C=C/c4ccccc4)cc3C(=O)N([C@H](C)CO)C[C@@H]2C)cc1
AbsAC35 [26]: 45.64 µM

NS(=O)(=O)c1ccc(N/C(S)=N\CCc2ccccc2)cc1
IC50 [27]: 5.84 µM (active) | IC50 [28]: > 80 µM (inactive) | IC50 [29]: 3.17 µM (active) | IC50 (cells [30]): > 29.9 µM (inactive) | EC50 [31]: 2.56 µM (active) | IC50 [32]: 7.06 µM (active) | EC50 (cells [33]): > 29.9 µM (inactive)
